In data set [1] the test system is Chromobacterium violaceum. In words: MIC, antibacterial test. The format is cell-based. Further details: key to Minimum inhibitory concentration (MIC): –: no inhibition observed under test conditions. As to the method: (§1) Compounds were tested for their antimicrobial activity against […] fungi (Candida albicans, Mucor hiemails, Pichia anomala, Rhodotorula glutinis and Schizosaccharomyces pombe), four different Gram-positive bacteria (Bacillus subtilis, Micrococcus luteus, Mycobacterium smegmatis and Staphylococcus aureus), and three Gram-negative bacteria (Chromobacterium violaceum, Escherichia coli and Pseudomonas aeruginosa), using oxytetracycline as a positive control against Gram-positive and Gram-negative bacteria, while nystatin was used as an antifungal positive control. Besides, cytotoxicities of the compounds against seven mammalian cell lines (human endocervical adenocarcinoma KB 3.1, breast cancer MCF-7, lung cancer A549, ovary cancer SK-OV-3, prostate cancer PC-3, squamous cancer A431, and mouse fibroblasts L929) were determined by the microculture tetrazolium test (MTT) method, using epothilon B as the positive control. Both bioactivity assays were performed following our standard protocols.

The test system of data set [2] is Escherichia coli. In words: MIC, antibacterial test. The format is cell-based. Further details: key to Minimum inhibitory concentration (MIC): –: no inhibition observed under test conditions. As to the method:
as §1

Data set [3] relates to Pseudomonas aeruginosa. Description: MIC, antibacterial test. The format is cell-based. The arrangement: key to Minimum inhibitory concentration (MIC): –: no inhibition observed under test conditions. Here is the method:
as §1

Data set [4] relates to KB 3.1, L929, A549, SK-OV-3, PC-3, A431, and MCF-7 mammalian cell lines. In words: Cytotoxicity, summary over all tested cell lines. To be noted: seven mammalian cell lines; read-out: IC50 values, range over all tested cell lines. The format is cell-based. Here is the method: as §1
Data set [5] deals with Al. brassicicola, Co. gloeosporioides, Co. truncatum, Cu. lunata and Py. grisea. Further details: method as in PMID 29677644. The settings on record: cited from earlier work.
For data set [6], the system named is Rhodotorula glutinis. In words: MIC, antifungal test. The format is cell-based. The arrangement: key to Minimum inhibitory concentration (MIC): –: no inhibition observed under test conditions. Here is the method:
as §1

Data set [7] relates to Pichia anomala. Description: MIC, antifungal test. The format is cell-based. The arrangement: key to Minimum inhibitory concentration (MIC): –: no inhibition observed under test conditions. As to the method: as §1
In data set [8] the test system is Schizosaccharomyces pombe. Description: MIC, antifungal test. The format is cell-based. Further details: key to Minimum inhibitory concentration (MIC): –: no inhibition observed under test conditions. Here is the method: as §1
The subject of data set [9] is Candida albicans. In words: MIC, antifungal test. The format is cell-based. Further details: key to Minimum inhibitory concentration (MIC): –: no inhibition observed under test conditions. As to the method:
as §1

Data set [10] has as its system Mucor hiemalis. Description: MIC, antifungal test. The format is cell-based. The arrangement: key to Minimum inhibitory concentration (MIC): –: no inhibition observed under test conditions. Here is the method: as §1
Data set [11] deals with NCI-H187 and Vero. Further details: method as in PMID 29677644. The settings on record: cited from earlier work.
The nature of data set [12]: Cytotoxicity, MTT method. Here is the method:
as §1
(In general: Formazan colour is commonly taken as a measure of viable cells.)

The subject of data set [13] is Mycobacterium smegmatis. In words: MIC, antibacterial test. The format is cell-based. Further details: key: –: no inhibition observed under test conditions. As to the method: as §1
The subject of data set [14] is Bacillus subtilis. In words: MIC, antibacterial test. The format is cell-based. The settings on record: read-out: Minimum inhibitory concentration (MIC). Here is the method:
as §1

The subject of data set [15] is Staphylococcus aureus. Description: MIC, antibacterial test. The settings on record: read-out: Minimum inhibitory concentration (MIC). The format is cell-based. Here is the method: as §1
Data set [16] relates to Micrococcus luteus. In words: MIC, antibacterial test. The format is cell-based. The settings on record: read-out: Minimum inhibitory concentration (MIC). Here is the method:
as §1

Data set [17] relates to Co. truncatum and Cu. lunata. The arrangement: method as in PMID 29677644. The settings on record: cited from earlier work.
The subject of data set [18] is mouse fibroblasts L929. In words: Cytotoxicity, MTT method. The settings on record: read-out: Cytotoxicity, half maximal inhibitory concentration (IC50); L929, MTT. Here is the method: as §1
Data set [19] concerns human endocervical adenocarcinoma KB 3.1. In words: Cytotoxicity, MTT method. To be noted: read-out: Cytotoxicity, half maximal inhibitory concentration (IC50); KB 3.1, MTT. As to the method:
as §1

The subject of data set [20] is lung cancer A549. Description: Cytotoxicity, MTT method. The settings on record: read-out: Cytotoxicity, half maximal inhibitory concentration (IC50); A549, MTT. Here is the method:
as §1

For data set [21], the system named is A431 human squamous cancer cells. In words: Cytotoxicity, MTT method. The settings on record: read-out: Cytotoxicity, half maximal inhibitory concentration (IC50); A431, MTT. As to the method:
as §1

The subject of data set [22] is ovary cancer SK-OV-3. In words: Cytotoxicity, MTT method. The settings on record: read-out: Cytotoxicity, half maximal inhibitory concentration (IC50); SK-OV-3, MTT. Here is the method:
as §1

The subject of data set [23] is prostate cancer PC-3. In words: Cytotoxicity, MTT method. The settings on record: read-out: Cytotoxicity, half maximal inhibitory concentration (IC50); PC-3, MTT. As to the method: as §1
Data set [24] relates to MCF-7 human breast cancer cells. In words: Cytotoxicity, MTT method. To be noted: read-out: Cytotoxicity, half maximal inhibitory concentration (IC50); MCF-7, MTT. Here is the method:
as §1

The test system of data set [25] is PC-3 prostate cancer cells. The arrangement: method as in PMID 31433962. The settings on record: cited from earlier work.
The mark [26] stands for this setting: human, A431 squamous cancer cells.
Setting [27] is: human, KB 3.1 endocervical adenocarcinoma cells.
Where [28] appears, read: human, MCF-7 breast cancer cells.
Setting [29] is: human, PC-3 prostate cancer cells.
Where [30] appears, read: human, SK-OV-3 ovary cancer cells.

≈ marks a conversion by molar mass, not a printed value.

For `COC(=O)[C@]12Oc3c(c(O)cc4c3[C@@H]3C=C[C@]5(C4)C(=C(O)c4c(O)cc(C)cc4[C@@H]5O)C3=O)C(=O)C1=C(O)CC[C@@H]2O` [Compound 8, Xanthoquinodin B4], the MIC in data set [1] (read-out: Minimum inhibitory concentration (MIC)) was determined as 66.7 µg/mL (≈ 116 µM); in [14], 2.1 µg/mL (≈ 3.66 µM); in [15] it was 8.3 µg/mL (≈ 14.4 µM); in [16], 8.3 µg/mL (≈ 14.4 µM). In addition, the “Minimum inhibitory concentration (MIC)” value in [2], in [3], in data set [6], in data set [7], in data set [8] and in data set [9] was “–” each time. The “Minimum inhibitory concentration (MIC)” value in [10] and in data set [13] was “–” each time. In addition, the IC50 in [4] was 100 to 4700 nM; in [12] (setting [26]), 160 nM; in data set [12] (human, A549 lung cancer cells), 1220 nM; in data set [12] (setting [27]) it was 1060 nM; in data set [12] (setting [28]), 100 nM; in [12] (setting [29]), 3140 nM. The IC50 in data set [12] (setting [30]) came out at 470 nM; in data set [12] (mouse, L929 fibroblasts) it was 4700 nM. For the same compound, in [5], the “Antifungal effects (in words)” value was “significant antifungal effects”. Also, in data set [11], the “Cytotoxicity compared with other xanthoquinodins (in words)” value is reported as “stronger cytotoxicity”.

Turning to `COC(=O)[C@]12Oc3cc4c(c(O)c3C(=O)C1=C(O)CC[C@@H]2O)[C@@H]1C=C[C@]2(C4)C(=C(O)c3c(O)cc(C)cc3[C@@H]2O)C1=O` [xanthoquinodin A6], the “Cytotoxicity compared with other xanthoquinodins (in words)” value in [11] is reported as “stronger cytotoxicity”. In data set [17], the “Antifungal effects (in words)” value was “significant antifungal effects”.

Take `C/C(=C\c1csc(C)n1)[C@@H]1C[C@@H]2O[C@]2(C)CCC[C@H](C)[C@H](O)[C@@H](C)C(=O)C(C)(C)[C@@H](O)CC(=O)O1` [epothilon B, reference compound]: the IC50 in data set [18] is 0.51 nM; in data set [19], 0.03 nM; in [20], 0.09 nM; in data set [21], 0.05 nM; in data set [22] it was 0.09 nM; in data set [23], 0.07 nM. Further, the IC50 in [24] was 0.03 nM.

On to `CCCC(=O)O[C@H]1c2cc(C)cc(O)c2C(=O)C2=C(O)[C@H]3C=C[C@]21Cc1cc(O)c2c(c13)O[C@@]1(C(=O)OC)C(=C(O)CC[C@@H]1O)C2=O` [Compound 2, Xanthoquinodin B10], for which the “Minimum inhibitory concentration (MIC)” value in [1], in data set [2], in data set [3], in data set [6], in [7] and in [8] was “–” throughout. Moreover, the “Minimum inhibitory concentration (MIC)” value in data set [9], in data set [10] and in [13] was “–” in each case. The IC50 in data set [4] is 30 to 1460 nM; in data set [12] (setting [26]), 60 nM; in data set [12] (human, A549 lung cancer cells) it was 400 nM; in data set [12] (setting [27]), 190 nM; in [12] (setting [28]) it was 40 nM; in data set [12] (setting [29]), 1060 nM. Besides, the IC50 in [12] (setting [30]) amounted to 130 nM; in data set [12] (mouse, L929 fibroblasts), 1460 nM. Besides, the MIC in data set [14] stood at 0.4 µg/mL (≈ 0.621 µM); in [15], 2.1 µg/mL (≈ 3.26 µM); in data set [16], 2.1 µg/mL (≈ 3.26 µM).

For the compound `COC(=O)[C@@]12Oc3c(c(O)cc4c3[C@@H]3C=C[C@]5(C4)C(=C(O)c4c(O)cc(C)cc4[C@@H]5O)C3=O)C(=O)C1=C(O)CC[C@@H]2O` [xanthoquinodin B5], the “Antifungal effects (in words)” value in [5] was “significant antifungal effects”. Besides, the “Cytotoxicity compared with other xanthoquinodins (in words)” value in data set [11] is given as “stronger cytotoxicity”.

As to xanthoquinodin JBIR-99, the “Antiproliferative activity (in words)” value in data set [25] was “high selective antiproliferative activity”.

For the compound ketoxanthoquinodin A6, the “Antifungal effects (in words)” value in data set [17] is given as “significant antifungal effects”.
